Earlier results on one compound are cited in article PMC5333395, “Assessing histone demethylase inhibitors in cells: lessons learned” (Epigenetics & Chromatin, 2017).

The series has as its target T1, KDM3A (Homo sapiens, UniProt Q9Y4C1).
T1 sequence (Q9Y4C1 1-1321): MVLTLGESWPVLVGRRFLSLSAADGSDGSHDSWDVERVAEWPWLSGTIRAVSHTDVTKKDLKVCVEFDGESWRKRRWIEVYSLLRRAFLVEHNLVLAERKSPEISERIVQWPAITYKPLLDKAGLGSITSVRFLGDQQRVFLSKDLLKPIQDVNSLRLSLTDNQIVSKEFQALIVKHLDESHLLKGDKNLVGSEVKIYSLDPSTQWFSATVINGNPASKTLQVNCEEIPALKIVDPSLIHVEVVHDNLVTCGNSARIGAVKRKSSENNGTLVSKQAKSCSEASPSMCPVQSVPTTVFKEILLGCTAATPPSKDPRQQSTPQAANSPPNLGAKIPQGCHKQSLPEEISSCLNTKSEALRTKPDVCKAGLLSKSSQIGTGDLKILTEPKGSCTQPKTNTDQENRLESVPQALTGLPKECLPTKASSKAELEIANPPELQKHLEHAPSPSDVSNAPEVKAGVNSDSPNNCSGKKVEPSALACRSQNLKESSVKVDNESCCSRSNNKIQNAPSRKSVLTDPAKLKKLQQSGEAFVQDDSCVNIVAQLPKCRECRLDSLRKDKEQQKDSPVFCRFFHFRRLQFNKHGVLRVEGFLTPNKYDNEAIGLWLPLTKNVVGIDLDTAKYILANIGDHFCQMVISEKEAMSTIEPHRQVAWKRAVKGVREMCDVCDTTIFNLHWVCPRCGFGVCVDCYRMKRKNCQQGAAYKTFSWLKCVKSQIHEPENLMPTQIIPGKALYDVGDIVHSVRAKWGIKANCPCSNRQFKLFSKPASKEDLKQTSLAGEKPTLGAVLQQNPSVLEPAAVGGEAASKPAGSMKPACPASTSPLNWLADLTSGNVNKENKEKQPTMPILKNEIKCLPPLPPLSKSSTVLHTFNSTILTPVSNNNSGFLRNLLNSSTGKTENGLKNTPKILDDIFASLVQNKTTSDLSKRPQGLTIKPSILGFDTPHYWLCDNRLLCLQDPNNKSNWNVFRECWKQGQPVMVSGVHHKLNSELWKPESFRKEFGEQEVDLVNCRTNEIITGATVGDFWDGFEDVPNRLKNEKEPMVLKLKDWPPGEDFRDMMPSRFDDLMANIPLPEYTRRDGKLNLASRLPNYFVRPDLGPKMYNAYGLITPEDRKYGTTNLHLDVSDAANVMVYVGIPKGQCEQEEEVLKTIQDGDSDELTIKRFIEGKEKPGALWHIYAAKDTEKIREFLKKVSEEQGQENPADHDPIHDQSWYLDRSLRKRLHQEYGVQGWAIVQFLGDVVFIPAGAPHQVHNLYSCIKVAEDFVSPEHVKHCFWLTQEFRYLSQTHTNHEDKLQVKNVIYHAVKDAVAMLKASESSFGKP
Details: method as in PMID 26741168. As to conditions: AlphaScreen; in vitro biochemical profiling previously reported; cited from earlier work. For orientation: Alpha assays give light when donor and acceptor beads are brought close together.

Regarding `Clc1ccc(N/N=C(\c2ccccc2)c2ccccn2)nc1` [JIB-04 E], the IC50 was 0.65 ± 0.05 µM.

Usually IC50 stands for the concentration that gives 50% inhibition.
